Results as given in US20260209152A1, “Substituted Hydroxystilbene Compounds and Derivatives, Synthesis and Uses Thereof” (Kynan Duke IP, LLC, priority 2019, published 2026).
Entries after “also recorded” stand apart in the source; their conditions may differ. Like-named read-outs stand apart in the source and are kept apart here.

What was measured:
[1] = tested on: Cancer cells including pancreatic, bladder, kidney, colon, breast, lung, liver and osteosarcomas; experiment: CellTiter Glo cell viability assay, panel of cancer cell lines; format: cell-based, human; settings: for Cancer cell viability inhibition, statement in words: SAR discussion based on IC50 values in Tables 1 to 5, compared with 1 [KYN-001]; for Fold reduction in cancer cell viability inhibition vs 1 [KYN-001]: cell lines tested
Experimental: Compounds 1 to 15 were evaluated and their effect on cancer growth examined in cell viability assays on multiple cancer types (Tables 1 to 5). Cancer cells including pancreatic, bladder, kidney, colon, breast, lung, liver and osteosarcomas obtained from ATCC (American Type Culture Collection) were authenticated before use by Short Tandem Repeat genomic analysis (Reid Y, Storts D, Riss T and Minor L. Authentication of Human Cell Lines by STR DNA Profiling Analysis. 2013 May 1. In: Markossian S, Sittampalam G S, Grossman A, et al., editors. Assay Guidance Manual. Bethesda (MD): Eli Lilly & Company and the National Center for Advancing Translational Sciences; 2004.). Experimental protocol for each cancer cell line was verified and optimized according to literature reports before use (Tables 1 to 3).
(§1) 1.7*10^3 cells/well were seeded in quadruplicates in 96-well plate after plating. Drugs were added at 5 μM and 2-fold dilutions over 18 concentrations (0.000038146-5 M concentration range) to generate a dose-response curve. Cell growth was assessed on day 1, 3 and 5 after drug treatments using the CellTiter Glo Luminescence Cell Viability Assay (Promega) according to manufacturer's protocol. Thermo Scientific Varioskan LUX Multimode Microplate instrument was used for plate reading. Data are expressed as mean luminescence (arbitrary units) ±S.D.
(§2) Cell Viability Assays were employed to determine the concentration of Compound 1 (KYN-001) and analogues where the response is reduced by half. For each treatment of cancer cells, 1, 2, 5, 10 and 20 μM solutions of compounds were applied. GraphPad Prism 7 software was used to fit dose response curves. Relative Luminescence Units were plotted against the log values of the doses used and the nonlinear regression model was used for data analysis.
(§3) The protocol for cell proliferation was optimized for Compound 8 (KYN-119) to enable a more accurate assessment of its low IC50 value. In this protocol, 18 dosages (2 fold dilutions ranging from 0.000038146 to 5 μM) were applied to cells seeded in 96-well plates, and Luminescence was measured after 1, 3 and 5 days upon treatments.

[2] = tested on: Bladder RT-112; experiment: CellTiter Glo cell viability assay; format: cell-based, human; settings: Homo sapiens
Experimental: as §1, §2, §3

[3] = tested on: Kidney ACHN; experiment: CellTiter Glo cell viability assay; format: cell-based, human; settings: Homo sapiens, ACHN, read-out: IC50
Experimental: as §1, §2, §3

[4] = tested on: Kidney A-498; experiment: CellTiter Glo cell viability assay; format: cell-based, human
Experimental: as §1, with “Drugs were added at 5 μM and 2-fold dilutions over 18 concentrations (0.000038146-5 M concentration range) to generate a dose-response curve.” left out
as §2, with “For each treatment of cancer cells, 1, 2, 5, 10 and 20 μM solutions of compounds were applied.” left out
The protocol for cell proliferation was optimized for Compound 8 (KYN-119) to enable a more accurate assessment of its low IC50 value. […]

[5] = tested on: Pancreatic MIA PaCa-2; experiment: CellTiter Glo cell viability assay; format: cell-based, human
Experimental: as §1, §2, §3
Day 3 upon treatment of MIA PaCa_2 pancreatic cancer cells, 24 h after plating (11 dilutions), as assessed by CellTiter Glow Assay.

[6] = tested on: Breast MDA-MB-231; experiment: CellTiter Glo cell viability assay; format: cell-based, human; settings: Homo sapiens, read-out: IC50
Experimental: as §1, §2, §3

[7] = tested on: Kidney CRL-1611; experiment: CellTiter Glo cell viability assay; format: cell-based; settings: Homo sapiens, 72 h; Day 3 upon drug treatment; 10 dosages 0.0001-20 μM; read-out: IC50
Experimental: as §1, §2, §3

[8] = tested on: Pancreatic CAPAN-1; experiment: CellTiter Glo cell viability assay; format: cell-based, human; settings: Homo sapiens, CAPAN-1, 72 h; Table 4: 3 Days of treatment; 18 2-fold dilutions 5-0.00003 μM; Average (1, 8) or single Exp A-D; read-out: IC50
Experimental: as §1, §2, §3

[9] = tested on: Bladder 5637; experiment: CellTiter Glo cell viability assay; format: cell-based, human; settings: Homo sapiens, 120 h; Day 5 upon drug treatment; 10 dosages 0.0001-20 μM (Compound 8: 18 dosages 0.000038146 to 5 μM); read-out: IC50
Experimental: as §1, §2, §3

[10] = tested on: Colon HCT_116; experiment: CellTiter Glo cell viability assay; format: cell-based, human; settings: Homo sapiens, HCT-116, 120 h; Day 5 upon drug treatment; 10 dosages 0.0001-20 μM (Compound 8: 18 dosages 0.000038146 to 5 μM); read-out: IC50
Experimental: as §1, §2, §3

[11] = tested on: Lung NCI-H1299; experiment: CellTiter Glo cell viability assay; format: cell-based, human; settings: Homo sapiens, NCI-H1299, 72 h
Experimental: as §1, §2, §3

[12] = tested on: Colon SW_480; experiment: CellTiter Glo cell viability assay; format: cell-based, human; settings: Homo sapiens, SW480, 72 h; Day 3 upon drug treatment; 10 dosages 0.0001-20 μM; read-out: IC50
[13] = RT-112, 72 h, Table 4: 3 Days of treatment, 18 2-fold dilutions 5-0.00003 μM, Average (1, 8) or single Exp A-D, read-out: IC50
[14] = 72 h, Table 4: 3 Days of treatment, 18 2-fold dilutions 5-0.00003 μM, Average (1, 8) or single Exp A-D
[15] = Homo sapiens, A498, 72 h, Table 4: 3 Days of treatment, 18 2-fold dilutions 5-0.00003 μM, Average (1, 8) or single Exp A-D, read-out: IC50
[16] = Homo sapiens, A498, Table 5A: 11 dilutions 3-0.00001 μM, single experiments Exp E-K, read-out: IC50
[17] = Table 5A: 11 dilutions 3-0.00001 μM, single experiments Exp E-K, read-out: IC50
[18] = Homo sapiens, MIA PaCa-2, Table 5A: 11 dilutions 3-0.00001 μM, single experiments Exp E-K, read-out: IC50
[19] = RT-112, 72 h, Day 3 upon drug treatment, 10 dosages 0.0001-20 μM, read-out: IC50
[20] = MDA-MB-231, 72 h, Day 3 upon drug treatment, 10 dosages 0.0001-20 μM
[21] = Homo sapiens, MIA PaCa-2, 72 h, Day 3 upon drug treatment, 10 dosages 0.0001-20 μM, read-out: IC50
[22] = RT-112, 120 h, Day 5 upon drug treatment, 10 dosages 0.0001-20 μM (Compound 8: 18 dosages 0.000038146 to 5 μM), read-out: IC50
[23] = MDA-MB-231, 120 h, Day 5 upon drug treatment, 10 dosages 0.0001-20 μM (Compound 8: 18 dosages 0.000038146 to 5 μM)
[24] = 120 h, Day 5 upon drug treatment, 10 dosages 0.0001-20 μM (Compound 8: 18 dosages 0.000038146 to 5 μM)
[25] = Homo sapiens, MIA PaCa-2, 120 h, Day 5 upon drug treatment, 10 dosages 0.0001-20 μM (Compound 8: 18 dosages 0.000038146 to 5 μM), read-out: IC50

CCCOc1cc(O)cc(/C=C/c2ccc(O)c(OC)c2)c1CC=C(C)C [Compound 9, (E)-3-(4-hydroxy-3-methoxystyryl)-4-(3-methylbut-2-en-1-yl)-5-propoxyphenol]
Cancer cell viability inhibition, statement in words [1]: comparable or weaker biological activity | IC50 [2, 13]: 22 nM | IC50 [3, 14]: 609 nM | IC50 [4, 15]: 19 nM | IC50 [4, 16]: 100 to 1000 nM | IC50 [4, 17]: 147 nM | IC50 [5, 18]: 100 to 1000 nM | IC50 [5, 17]: 115 nM

COc1cc(O)cc(/C=C/c2ccc(O)c(SC)c2)c1CC=C(C)C [Compound 14, (E)-3-(4-Hydroxy-3-(methylthio)styryl)-5-methoxy-4-(3-methylbut-2-en-1-yl)phenol]
IC50 [2, 19]: 1330 nM | IC50 [6, 20]: ~10600 nM | IC50 [7]: 2960 nM | IC50 [5, 21]: 3470 nM

COc1cc(C=Cc2cc(O)cc(OC(C)C)c2CC=C(C)C)ccc1O [Compound 10, 3-(4-Hydroxy-3-methoxystyryl)-5-isopropoxy-4-(3-methylbut-2-en-1-yl)phenol]
IC50 [8]: 2240 nM | IC50 [2, 13]: 25.6 nM | IC50 [3, 14]: 40.9 nM | IC50 [4, 15]: 37.1 nM | IC50 [4, 16]: 100 to 1000 nM | IC50 [4, 17]: 126 nM

COC(=O)CNc1ccc(/C=C/c2cc(O)cc(OC)c2CC=C(C)C)cc1OC [Compound 33, Methyl (E)-(4-(5-hydroxy-3-methoxy-2-(3-methylbut-2-en-1-yl)styryl)-2-methoxyphenyl)glycinate]
Cancer cell viability inhibition, statement in words [1]: marginally less potent than the parent compound 1 | IC50 [9]: 85.9 nM | IC50 [2, 22]: 95.5 nM | IC50 [6, 23]: 169 nM | IC50 [10]: 680 nM | IC50 [3, 24]: 2840 nM | IC50 [5, 25]: 96.8 nM | IC50 [5, 18]: 2040 nM

COc1cc(/C=C/c2cc(O)cc(OC)c2CC=C(C)C)ccc1[N+](=O)[O-] [Compound 22, (E)-3-Methoxy-5-(3-methoxy-4-nitrostyryl)-4-(3-methylbut-2-en-1-yl)phenol]
Cancer cell viability inhibition, statement in words [1]: Loss of the anti-proliferative effect | IC50 [6, 23]: 6200 nM

COc1cc(/C=C/c2cc(O)cc(OC)c2CC=C(C)C)ccc1NC(C)=O [Compound 29, (E)-N-(4-(5-hydroxy-3-methoxy-2-(3-methylbut-2-en-1-yl)styryl)-2-methoxyphenyl)acetamide]
Cancer cell viability inhibition, statement in words [1]: marginally less potent than the parent compound 1 | IC50 [9]: 67.4 nM | IC50 [2, 22]: 76.4 nM | IC50 [6, 23]: 155 nM | IC50 [10]: 627 nM | IC50 [3, 24]: 281 nM | IC50 [5, 25]: 185 nM

COc1cc(/C=C/c2cc(O)cc(OC)c2CC=C(C)C)cc(C)c1O [Compound 17, (E)-4-(5-Hydroxy-3-methoxy-2-(3-methylbut-2-en-1-yl)styryl)-2-methoxy-6-methylphenol]
Cancer cell viability inhibition, statement in words [1]: marginally less potent than the parent compound 1 | Fold reduction in cancer cell viability inhibition vs 1 [KYN-001] [1]: approximately 3 | IC50 [9]: 104 nM | IC50 [2, 22]: 115 nM | IC50 [6, 23]: 246 nM | IC50 [10]: 353 nM | IC50 [3, 24]: 283 nM | IC50 [4, 16]: 100 to 1000 nM | IC50 [4, 17]: 142 nM | IC50 [5, 25]: 182 nM | IC50 [5, 18]: 1150 nM

COc1cc(/C=C/c2cc(O)cc(OC)c2CC=C(C)C)ccc1N [Compound 23, (E)-3-(4-Amino-3-methoxystyryl)-5-methoxy-4-(3-methylbut-2-en-1-yl)phenol]
Cancer cell viability inhibition, statement in words [1]: marginally less potent than the parent compound 1; also recorded: activity similar to but overall reduced | IC50 [9]: 65.3 nM | IC50 [2, 22]: 68.2 nM | IC50 [6, 23]: 138 nM | IC50 [10]: 474 nM | IC50 [3, 24]: 260 nM | IC50 [5, 25]: 180 nM

CCOc1cc(C=Cc2cc(O)cc(OC)c2CC=C(C)C)ccc1O [Compound 12, 3-(3-Ethoxy-4-hydroxystyryl)-5-methoxy-4-(3-methylbut-2-en-1-yl)phenol]
Fold reduction in cancer cell viability inhibition vs 1 [KYN-001] [1]: approximately 10 | IC50 [11]: 827 nM | IC50 ([2]; RT-112, 72 h): 347 nM | IC50 ([4]; Homo sapiens, A498, 72 h, Table 4: 3 Days of treatment, 18 2-fold dilutions 5-0.00003 μM, Average (1, 8) or single Exp A-D): 822 nM | IC50 ([5]; Homo sapiens, MIA PaCa-2): 1090 nM

COc1cc(/C=C/c2cc(O)cc(OC)c2Br)ccc1O [Compound 45, (E)-4-Bromo-3-(4-hydroxy-3-methoxystyryl)-5-methoxyphenol]
IC50 [12]: 10800 nM | IC50 [6, 20]: ~10300 nM | IC50 [5, 21]: 20400 nM

CCc1cc(/C=C/c2cc(O)cc(OC)c2CC=C(C)C)ccc1O [Compound 13, (E)-3-(3-Ethyl-4-hydroxystyryl)-5-methoxy-4-(3-methylbut-2-en-1-yl)phenol]
IC50 [12]: 26500 nM | IC50 [2, 19]: 949 nM | IC50 [7]: 2120 nM | IC50 [5, 21]: 3000 nM

COc1cc(/C=C/c2cc(O)cc(OC(F)(F)F)c2CC=C(C)C)ccc1O [Compound 11, (E)-3-(4-hydroxy-3-methoxystyryl)-4-(3-methylbut-2-en-1-yl)-5-(trifluoromethoxy)phenol]
IC50 ([11]; Table 4: 3 Days of treatment, 18 2-fold dilutions 5-0.00003 μM, Average (1, 8) or single Exp A-D, read-out: IC50): 193 nM | IC50 [2, 13]: 39.2 nM | IC50 [4, 15]: 104 nM | IC50 ([5]; Homo sapiens, MIA PaCa-2, 72 h, Table 4: 3 Days of treatment, 18 2-fold dilutions 5-0.00003 μM, Average (1, 8) or single Exp A-D, read-out: IC50): 665 nM
